From patent publication US8828997B2, “2,3-dihydro-1H-imidazo(1,2-a)pyrimidin-5-one derivatives, preparation thereof, and pharmaceutical use thereof” (Sanofi, priority 2009, dated 2014)

What was measured:
[1] = test system: translocation of the LC3 protein in Hela GFP-LC3 cells; assay: Translocation of the LC3 protein in Hela human cells measured by image analysis cytometry (test C, autophagy); format: cell-based; settings: Homo sapiens, HeLa, 2 h, EBSS + 10 μM hydroxychloroquine, cells with LC3 granulations, absolute IC50
Summary of the method: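 HeLa clone stably expressing GFP-LC3, starved in EBSS with 10 μM hydroxychloroquine plus compound (10 nM to 1 μM range, 0.1% DMSO) for 2 h at 37 °C. After PFA fixation and Hoechst staining, LC3 translocation read by image analysis cytometry; IC50 from dose-response curves, mean of 2 independent experiments.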

[2] = test system: AKT protein phosphorylated on serine 473 (pAKT-S473) in PC3 human prostate carcinoma cells; assay: pAKT expression in PC3 human prostate carcinoma cells measured by western blotting (test A); format: cell-based; settings: PC-3, 1 to 2 h incubation, absolute IC50
Method: The inhibitory activity of the molecules on AKT phosphorylation is measured either by western blotting using the technique described below, or by the MSD Multi-spot Biomarker detection technique from Meso Scale Discovery also described below.
Study of pAKT Expression in PC3 Human Prostate Carcinoma Cells Measured by Western Blotting (test A):
This test is based on measuring the expression of the AKT protein phosphorylated on serine 473. The phosphorylation of AKT (pAKT) is measured by western blotting in the PC3 human prostate carcinoma line (ATCC CRL-1435), using an antibody that specifically recognises pAKT-S473.
On day 1, the PC3 cells are seeded into 6-well plates (TPP, #92006) at the concentration of 0.8×10^6 cells/well in 1800 μl of DMEM medium (DMEM Gibco #11960-044) containing 10% of foetal calf serum (SVF Gibco, #10500-056) and 1% glutamine (L-Glu Gibco #25030-024), and incubated at 37° C., 5% CO2, overnight.
On day 2, the cells are incubated in the presence or absence of the test products for 1 to 2 hours at 37° C. in the presence of 5% CO2. The molecules, diluted in dimethyl sulphoxide (DMSO Sigma #D2650), are added from a 10-times concentrated stock solution, the final percentage of DMSO being 0.1%. The molecules are tested either at a single concentration of less than or equal to 10 μM, or at increasing concentrations in a range that can extend from less than 1 nM to 10 μM.
After this incubation, the cells are lysed for the preparation of the proteins. After the culture medium has been drawn off, the cells are rinsed with 1 ml of PBS (DPBS Gibco, #14190-094), recovered by scraping in 200 μl of complete HNTG buffer and transferred into a 96-well plate (Greiner #651201), and lysed for 1 h on ice. The HNTG buffer is composed of the following mixture: 50 mM hepes, 150 mM NaCl, 1% triton, 10% glycerol, with extemporaneous addition of one Mini Protease Inhibitor Cocktail tablet (Roche 1836153) and of one Phosphatase Inhibitor Cocktail tablet (Roche104906837001) per 10 ml of buffer.
The lysate is centrifuged for 10 min at 6000 rpm. 155 μl of supernatant are recovered. 150 μl are incubated for denaturation for 5 min at 95° C. in the presence of 4× NuPAGE LDS Sample Buffer diluted 4-fold (InVitrogen ref NP0007) and of 10× NuPAGE Sample Reducing Agent diluted 10-fold (InVitrogen ref NP0009). These samples are then frozen at −20° C. 5 μl are assayed by the microBCA technique according to the technical bulletin of the MicroBCA Protein Assay Kit (Pierce #23235).
For protein separation, 20 μg of proteins are loaded on to a NU-PAGE 4-12% Bis Tris Gel 12 well (InVitrogen ref NP0322BOX) and the migration is carried out for 1 h 30 in 20× NU-PAGE MOPS SDS Running Buffer diluted 20-fold (InVitrogen ref NP0001), at 150 volts.
The gel is then transferred on to an Invitrolon PVDF membrane (Invitrogen #LC2007) permeabilised before and after a few seconds in ethanol (Ethanol Fischer Scientific #E/0600DF/15).
The transfer is carried out in a Biorad tank at 30 volts overnight or at 60 volts for 3 hours, in the presence of 20× NUPAGE Transfer Buffer diluted 20-fold (InVitrogen ref NP0006).
The membrane is then saturated in saturating solution composed of TBS (10× Tris Buffered Saline, Sigma #T5912, diluted 10-fold), 0.1% Tween 20 (Sigma #P5927) and 3% BSA (Bovine Albumin Serum Fraction V, Sigma #A4503) for 6 h after overnight transfer or else for 1 h after transfer for a period of 3 h.
The primary antibodies are diluted to 1/1000 for the anti-phospho AKT-Ser473 antibody (1931-12, rabbit monoclonal, cat#4058 from Cell Signaling Technology Abcam), in saturating solution composed of PBS, 0.1% Tween 20 and 3% BSA, and then shaken overnight at 4° C.
Two rinses for 5 min in washing solution composed of TBS and 0.1% Tween 20 are carried out before hybridisation of the secondary antibodies. […]

## COc1ccc(CCN2c3nc(N4CCOCC4)cc(=O)n3C[C@@]2(C)C(F)(F)F)cc1 [Example 1, (S)-1-[2-(4-Methoxyphenyl)ethyl]-2-methyl-7-morpholin-4-yl-2-trifluoromethyl-2,3-dihydro-1H-imidazo[1,2-a]pyrimidin-5-one]
[1]
  IC50: 44 nM
[2]
  IC50: 100 nM
